Laboratory results from patent US4117122A, “11-Aminoalkylmorphanthridin-11-ols” (Richardson-Merrell Inc., priority 1976, dated 1978).

How the values were obtained:
[1] = Source text: (§1) The compounds of the present invention are unique in pharmacologic activity.
[2] = oral LD50 in standard animal tests; format: in vivo; settings: for LD50: in vivo, standard animal tests, approximately
Source text: as §1

[3] = system: reserpine-induced depression; assay: antagonism of reserpine-induced depression in mice (standard antidepressant test); format: in vivo; settings: for antidepressant potency relative to imipramine: compared with imipramine; for antagonism of reserpine-induced depression: mice, intraperitoneal doses of 5 to 30 mg/kg
Source text: as §1

SMILES: CN(C)CCCC1(O)c2ccccc2CNc2ccc(Cl)cc21 (stereo not shown) [2-Chloro-11-(3-dimethylaminopropyl)-5,6-dihydromorphanthridin-11-ol]
- anticholinergic activity [1]: no significant anticholinergic activity
- oral LD50 compared with imipramine [2]: substantially greater than that of imipramine
- LD50 [2]: ~175 mg/kg
- antidepressant potency relative to imipramine [3]: at least ten times more potent than that of imipramine
- antagonism of reserpine-induced depression [3]: antagonize reserpine-induced depression in mice

SMILES: CN(C)CCCC1(O)c2ccccc2C=Nc2ccccc21 (stereo not shown) [11-(3-Dimethylaminopropyl)morphanthridin-11-ol]
- anticholinergic activity [1]: no significant anticholinergic activity
- oral LD50 compared with imipramine [2]: substantially greater than that of imipramine
- LD50 [2]: ~130 mg/kg
- antidepressant potency relative to imipramine [3]: at least ten times more potent than that of imipramine
- antagonism of reserpine-induced depression [3]: antagonize reserpine-induced depression in mice
